The values below come from patent US20110046040A1, “Microorganism-inactivating agent” (CHISSO CORPORATION, priority 2009, published 2011).

What all share (assay): inactivation of microorganisms in water, number of cells in supernatant
Holding throughout (type): cell-based

One experiment deals with Escherichia coli. The conditions noted are these: 10 ppm; pH 8; initial 5.8 × 10^4. How it is done: (§1) Each test microbe was inoculated to nutrient broth and cultured with shaking at the optimum temperature of the test microbe until the late logarithmic phase. From the microbe culture, the microbe was collected, and the collected microbe was washed with 1.5 mL of physiological saline 2 to 3 times (centrifugation at 13000 rpm for 1 minute) and suspended in 1.5 mL of physiological saline. From the suspension, a 1 mL aliquot was recovered, and this was added to 9 mL of sterile water, followed by sufficient stirring of the resulting suspension (this was used as 10^−1 dilution). From the 10^−1 dilution, 10^−2 to 10^−8 dilutions were sequentially prepared. Each dilution was smeared on a film medium (Sanita-kun; for E. coli and coliform bacteria, for Staphylococcus aureus, for Salmonella, for aerobic bacteria or for fungi: Chisso Corporation) in an amount of 1 mL, followed by culturing at the optimum temperature of the test microbe for 24 to 72 hours and measurement of the number of cells on the film medium.
(§2) To a sterilized beaker, 500 mL of sterilized water was placed, and 0.20 mL of microbe culture of 10^6 to 10^10 cells/mL was inoculated thereto, to attain an initial cell number of 10^3 to 10^7 cells/mL. Unless otherwise specified, the pH was 6 to 8. After stirring the suspension gently for 5 minutes, PGα21Ca (Nippon Poly-Glu Co., Ltd.) and/or a microbiostatic agent or microbicide was/were added thereto such that a predetermined final concentration(s) was/were attained. After gentle stirring at room temperature for 10 to 15 minutes, the suspension was left to stand for a predetermined length of time. The supernatant was collected and diluted appropriately in an antimicrobial agent-inactivating medium (BHI medium or the like), and 1 mL each of the resulting diluent was smeared on a film medium. Culturing was carried out at the optimum temperature of each test microbe for 24 to 72 hours and the number of cells (cells/mL) on the film medium was measured.

For the next experiment, the system named is Bacillus subtilis. The conditions noted are these: 10 ppm; pH 8; initial 6.0 × 10^4. How it is done:
as §1, §2

The test system of a further experiment is Pseudomonas aeruginosa. To be noted: 10 ppm; pH 8; initial 2.0 × 10^5. How it is done:
as §1, §2

In the next experiment the test system is Bacillus cereus. The conditions noted are these: 10 ppm; pH 8; initial 9.5 × 10^4. How it is done: as §1, §2
The next experiment relates to Salmonella choleraesuis. The conditions noted are these: 10 ppm; pH 8; initial 4.7 × 10^4. How it is done:
as §1, §2

The subject of the next experiment is Klebsiella pneumoniae. To be noted: 10 ppm; pH 8; initial 1.3 × 10^5. How it is done: as §1, §2
In a further experiment the test system is Listeria monocytogenes. The conditions noted are these: 10 ppm; pH 8; initial 2.0 × 10^4. How it is done:
as §1, §2

In the next experiment the test system is Staphylococcus aureus. To be noted: 10 ppm; pH 8; initial 4.3 × 10^4. How it is done:
as §1, §2

Consider protamine sulfate, for which the “number of cells 2 hours later” value in the experiment with Escherichia coli is less than 10 cells/mL; with Bacillus subtilis, 10 cells/mL; in the experiment on Pseudomonas aeruginosa, less than 10 cells/mL; in the experiment with Bacillus cereus, 300 cells/mL; with Salmonella choleraesuis, less than 10 cells/mL; with Klebsiella pneumoniae it was 10 cells/mL. For the same substance, the “number of cells 2 hours later” value in the experiment with Listeria monocytogenes and in the experiment with Staphylococcus aureus was less than 10 cells/mL each time.
